Source: patent US9578875B2, “Fungicidal composition” (priority 2013, dated 2017)
Like-named read-outs stand apart in the source and are kept apart here.

What was measured:
[1] = format: physicochemical; details: for Cyazofamid Technical, 0 Day / Cyazofamid Technical, 14 Day: storage at 54° C.
Description: Experiment: Cyazofamid technical was mixed with Na2CO3 (Inorganic base) in one batch and with HMT (organic base) in the other. Both the samples were kept at 54° C. for 14 days. After 14 days, the cyazofamid content in both the samples was analyzed. […] The stability of cyazofamid technical was tested in the presence of an inorganic base and compared with the stability in the presence of an organic base, with the following results: […]

[2] = format: physicochemical
Description: The following compositions comprising cyazofamid and Mancozeb were prepared, with the different stabilizers substituted. The AHS stability of these formulations was tested.
The formulation prepared according to Example 1 (adjusted for purity of the technical material) was modified to replace the HMT content with 1.0% sodium carbonate. The stability of both the formulations were tested, with the following results: […]

[3] = Example 1 formulation with HMT replaced by 1.0% Na2CO3
[4] = Example 1 formulation with HMT replaced by 1.0% Na2CO3, 14 D AHS at 54° C.
[5] = Example 1 formulation, presence of 1.0% HMT
[6] = Example 1 formulation, presence of 1.0% HMT, 14 D AHS at 54° C.

| Compound | Cyazofamid Technical, 0 Day ([1]; HMT 0.5%) | Cyazofamid Technical, 14 Day ([1]; HMT 0.5%) | Cyazofamid Technical, 0 Day ([1]; Na2CO3 0.5%) | Cyazofamid Technical, 14 Day ([1]; Na2CO3 0.5%) | Cyazofamid content, 0 D ([1]; Presence of 0.5% HMT) | Cyazofamid content, 14 D AHS at 54° C. ([1]; Presence of 0.5% HMT) | Cyazofamid content, 0 D ([1]; Presence of 0.5% Na2CO3) | Cyazofamid content, 14 D AHS at 54° C. ([1]; Presence of 0.5% Na2CO3) | Degradation (%) ([2]; 14 day) | Active content in formulation, 0 D [2, 3] | Active content in formulation, 14 D AHS at 54° C. [2, 4] | Active content in formulation, 0 D [2, 5] | Active content in formulation, 14 D AHS at 54° C. [2, 6] | drop in cyazofamid concentration upon accelerated storage (2 weeks at 54° C.) | Degradation with respect to storage at ambient condition (14 days) | Purity after 14 days of storage at 10° C. (glass bottle, air tight plug and cap, 10° C., 14 days) | Purity after 14 days of storage at 54 ± 2° C. (glass bottle, air tight plug and cap, 54 ± 2° C., 14 days) | Purity after 14 days, Room temperature (30-35° C.) (glass bottle, air tight plug and cap, room temperature (30-35° C.), 14 days) | Degradation (%) [2, 4] | Degradation (%) [2, 6] |
| --- | --- | --- | --- | --- | --- | --- | --- | --- | --- | --- | --- | --- | --- | --- | --- | --- | --- | --- | --- | --- |
| Cc1ccc(-c2c(Cl)nc(C#N)n2S(=O)(=O)N(C)C)cc1 [Cyazofamid, 4-chloro-2-cyano-N,N-dimethyl-5-p-tolylimidazole-1-sulfonamide] | 95.10 | 94.27 | 95.98 | 92.38 | 95.1 %, w/w | 94.27 %, w/w | 95.98 %, w/w | 92.38 %, w/w | 11.16% | 6.27 %, w/w | 5.57 %, w/w | 5.59 %, w/w | 5.43 %, w/w | 12.5% | 12.87% | 95.36 | 83.25 | 95.55 | – | – |
| Mancozeb | – | – | – | – | – | – | – | – | – | 70.67 %, w/w | 70.49 %, w/w | 70.34 %, w/w | 70.14 %, w/w | – | – | – | – | – | 0.25% | 0.28% |
